One experiment deals with ERβ (Homo sapiens, UniProt Q92731). Kind of experiment: ERβ-specific U2OS reporter gene assay. Type of experiment: cell-based. A general note: A reporter such as luciferase makes a cellular process visible.
For the next experiment, the target named is T1, ERα (Homo sapiens, UniProt P03372).
T1 sequence (P03372 1-595): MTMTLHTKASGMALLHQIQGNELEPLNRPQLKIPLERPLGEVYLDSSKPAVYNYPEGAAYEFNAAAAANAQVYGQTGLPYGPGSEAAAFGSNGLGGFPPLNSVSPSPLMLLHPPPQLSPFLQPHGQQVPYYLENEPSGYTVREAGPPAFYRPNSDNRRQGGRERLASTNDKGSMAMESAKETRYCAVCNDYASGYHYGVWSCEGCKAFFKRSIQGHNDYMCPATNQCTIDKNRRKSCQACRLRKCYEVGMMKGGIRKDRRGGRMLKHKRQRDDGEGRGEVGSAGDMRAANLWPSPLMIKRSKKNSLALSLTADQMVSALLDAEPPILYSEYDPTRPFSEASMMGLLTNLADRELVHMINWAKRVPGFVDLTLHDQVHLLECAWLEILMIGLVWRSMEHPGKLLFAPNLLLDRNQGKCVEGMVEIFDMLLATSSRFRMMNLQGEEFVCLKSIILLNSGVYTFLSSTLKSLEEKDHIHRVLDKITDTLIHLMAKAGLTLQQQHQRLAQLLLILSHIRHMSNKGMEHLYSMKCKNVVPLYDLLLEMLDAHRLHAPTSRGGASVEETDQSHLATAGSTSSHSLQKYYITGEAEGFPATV
Kind of experiment: ERα-specific U2OS reporter gene assay. It counts as cell-based.

The next experiment relates to FLAG-ERβ. It counts as cell-based, human. Conditions: in the presence of 1000 ng tetracycline/ml, 24 h.

SMILES strings stand for the structures.

Chain of ERβ (Q92731 whole entry): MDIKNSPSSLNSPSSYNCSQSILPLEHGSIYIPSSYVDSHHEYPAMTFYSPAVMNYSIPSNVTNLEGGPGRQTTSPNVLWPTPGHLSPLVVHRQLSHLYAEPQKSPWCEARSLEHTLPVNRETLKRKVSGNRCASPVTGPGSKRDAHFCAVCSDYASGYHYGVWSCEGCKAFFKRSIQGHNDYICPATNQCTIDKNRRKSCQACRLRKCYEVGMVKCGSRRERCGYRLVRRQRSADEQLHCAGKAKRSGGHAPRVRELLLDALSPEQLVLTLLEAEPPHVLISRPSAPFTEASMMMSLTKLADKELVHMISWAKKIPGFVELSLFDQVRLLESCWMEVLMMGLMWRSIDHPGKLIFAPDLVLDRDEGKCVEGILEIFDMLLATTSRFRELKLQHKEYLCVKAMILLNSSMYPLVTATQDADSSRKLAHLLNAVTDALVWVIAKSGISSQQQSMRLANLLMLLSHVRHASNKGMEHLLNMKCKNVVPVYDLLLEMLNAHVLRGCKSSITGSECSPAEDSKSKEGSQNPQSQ

As to `CCCc1c(-c2ccc(O)cc2)nn(-c2ccc(O)cc2)c1-c1ccc(O)cc1` [PPT, 4,4′,4″-(4-propyl-[1H]pyrazole-1,3,5-triyl) Tris-phenol], the “Transcription of the reporter gene in the ERβ-U2OS-Luc cell line” value on ERβ is recorded as “unable to induce any transcription”. The concentration giving a half-maximal response (EC50) (commonly the concentration at which the effect is half-maximal) at ERα was 0.14 nM.

For the compound `CN(C)[C@@H]1C(O)=C(C(N)=O)C(=O)[C@@]2(O)C(O)=C3C(=O)c4c(O)cccc4[C@@](C)(O)[C@H]3C[C@@H]12` [tetracycline, Tetracycline], the FLAG-ERβ protein expression result in the experiment with FLAG-ERβ is given as “No detectable FLAG-ERβ protein”.
